In data set [1] the test system is Mycobacterium tuberculosis. Nature of the data set: Antitubercular activity against isoniazid, rifampin, streptomycin, ethambutol, amikacin, ofloxacin, kanamycin-susceptible Mycobacterium tuberculosis assessed as inhibition of bacterial growth after 4 weeks by two-fold dilution technique. As to conditions: 672 h. The format is functional.
A short description of data set [2]: Inhibition of Mycobacterium tuberculosis AHAS catalytic subunit assessed as inhibition of acetoin formation using […] as substrate after 1 hr.
Data set [3] relates to Mycobacterium tuberculosis. Nature of the data set: Inhibition of Mycobacterium tuberculosis AHAS catalytic subunit assessed as inhibition of acetoin formation using […] as substrate at 100 uM after 1 hr.
The test system of data set [4] is Mycobacterium tuberculosis. Nature of the data set: Antitubercular activity against Mycobacterium tuberculosis H37Rv ATCC 27294 assessed as inhibition of bacterial growth after 4 weeks by two-fold dilution technique. Type of data set: functional. To be noted: H37Rv ATCC 27294, 672 h.
Data set [5] concerns Mycobacterium tuberculosis. Nature of the data set: Antitubercular activity against isoniazid, rifampin, streptomycin, ethambutol, amikacin, ofloxacin, kanamycin-susceptible Mycobacterium tuberculosis infected in human THP-1 cells assessed as inhibition of intracellular activity at 10 mg/L after 4 days. The format is functional. As to conditions: THP-1, 96 h.
The test system of data set [6] is Mycobacterium tuberculosis. In words: Antitubercular activity against Mycobacterium tuberculosis H37Rv ATCC 27294 infected in human THP-1 cells assessed as inhibition of intracellular activity at 10 mg/L after 4 days. As to conditions: H37Rv ATCC 27294, THP-1, 96 h. Type of data set: functional.
In data set [7] the test system is Mycobacterium tuberculosis. Nature of the data set: Antitubercular activity against Mycobacterium tuberculosis H37Rv ATCC 27294 infected in human THP-1 cells assessed as inhibition of intracellular activity at 20 mg/L after 4 days. As to conditions: H37Rv ATCC 27294, THP-1, 96 h. Type of data set: functional.
Data set [8] relates to Mycobacterium tuberculosis. Nature of the data set: Antitubercular activity against isoniazid, rifampin, streptomycin, ethambutol, amikacin, ofloxacin, kanamycin-susceptible Mycobacterium tuberculosis infected in human THP-1 cells assessed as inhibition of intracellular activity at 20 mg/L after 4 days. The format is functional. As to conditions: THP-1, 96 h.
The subject of a further data set is THP-1. In words: Cytotoxicity against human THP1 cells at 20 mg/L by MTT assay. The format is cell-based.

These results are taken from ChEMBL document CHEMBL3425445, “Synthesis, crystal structure and biological evaluation of substituted quinazolinone benzoates as novel antituberculosis agents targeting acetohydroxyacid synthase” (Eur J Med Chem, 2015).

≈ marks a conversion by molar mass, not a printed value. A value given as a limit tells only on which side of the number the result lay.

Broadly, the MIC is the smallest concentration in the dilution series that meets the test's criterion for growth inhibition. In general, IC50 refers to the concentration that gives 50% inhibition. As usually defined, the inhibition is the relative decrease from the control value, in per cent.

Regarding `CO[C@H]1/C=C/O[C@@]2(C)Oc3c(C)c(O)c4c(O)c(c(/C=N/N5CCN(C)CC5)c(O)c4c3C2=O)NC(=O)/C(C)=C\C=C\[C@H](C)[C@H](O)[C@@H](C)[C@@H](O)[C@@H](C)[C@H](OC(C)=O)[C@@H]1C` [RIFAMPIN], in [1], the minimal inhibitory concentration (MIC) is 0.4 µg/mL (≈ 0.486 µM).
Turning to `O=C(On1c(-c2cccc(F)c2)nc2ccccc2c1=O)c1cccc(Cl)c1`, the IC50 in data set [2] is greater than 100 µM. Besides, in data set [3], the inhibition was 42.5%. The MIC in [4] is greater than 50 µg/mL.
As for `Cc1cccc(-c2nc3ccccc3c(=O)n2OC(=O)c2ccccc2)c1`, the IC50 in data set [2] is greater than 100 µM. Moreover, in data set [3], the inhibition turned out to be 40.5%. The minimal inhibitory concentration (MIC) in [4] was greater than 50 µg/mL.
For `COc1cccc(C(=O)On2c(-c3ccccc3)nc3ccccc3c2=O)c1`, the IC50 in data set [2] is greater than 100 µM. Besides, in data set [3], the inhibition turned out to be 27%. For the same compound, the MIC in data set [4] was greater than 50 µg/mL.
As for `O=C(On1c(-c2ccccc2)nc2ccccc2c1=O)c1ccccc1`, the 50% inhibitory concentration (IC50) in data set [2] is greater than 100 µM. For the same compound, the inhibition in data set [3] was found to be 20.5%. Besides, in [4], the MIC is greater than 50 µg/mL.
The corresponding values for `O=C(On1c(-c2ccccc2)nc2ccccc2c1=O)c1cccc(F)c1` are greater than 100 µM, 26% and greater than 50 µg/mL.
Turning to `Cc1ccc(C(=O)On2c(-c3cccc(C)c3)nc3ccccc3c2=O)cc1`, in [2], the IC50 was greater than 100 µM. In data set [3], the inhibition was determined as 33%. Besides, in data set [4], the MIC was greater than 50 µg/mL.
On to `COC(=O)c1ccccc1S(=O)(=O)NC(=O)Nc1nc(C)cc(C)n1` [SULFOMETURON METHYL], for which the concentration for half-maximal inhibition (IC50) in data set [2] amounted to 4.79 µM. The inhibition at 10 µg/mL was 15.5% in [5] and 15.9% in data set [6]. Moreover, the values for the inhibition at 20 µg/mL in data set [7] and in data set [8] were 32.5% and 32.3%, respectively. The MIC in [4] and in data set [1] was 10 µg/mL (≈ 27.4 µM) each time.
Turning to `Cc1ccccc1-c1nc2ccccc2c(=O)n1OC(=O)c1cccc(F)c1`, the IC50 in data set [2] was greater than 100 µM. The inhibition in data set [3] was 30%. Also, the MIC in data set [4] is greater than 50 µg/mL.
As to `O=C(On1c(-c2ccccc2)nc2ccccc2c1=O)c1cccc([N+](=O)[O-])c1`, the IC50 in [2] came to 9.68 µM. For the same compound, in data set [3], the inhibition was determined as 91.5%. The MIC in data set [4] and in [1] was 5 µg/mL (≈ 12.9 µM) in each case.
Consider `COc1cccc(-c2nc3ccccc3c(=O)n2OC(=O)c2cccc([N+](=O)[O-])c2)c1`, for which the half-inhibitory concentration (IC50) in [2] worked out at 8.74 µM. In [3], the inhibition worked out at 94%. In addition, the MIC in [4] and in data set [1] was 5 µg/mL (≈ 12 µM) in each case.
For `Cc1cccc(-c2nc3ccccc3c(=O)n2OC(=O)c2cccc(C(F)(F)F)c2)c1`, in [2], the IC50 was greater than 100 µM. Further, in data set [3], the inhibition was found to be 9.5%. Also, the MIC in [4] is greater than 50 µg/mL.
Turning to `O=C(On1c(-c2cccc(F)c2)nc2ccccc2c1=O)c1ccccc1`, in [2], the IC50 is greater than 100 µM. Moreover, the inhibition in data set [3] is 26%. Moreover, the minimum inhibitory concentration (MIC) in data set [4] worked out at 50 µg/mL (≈ 139 µM).
For `O=C(On1c(-c2ccccc2)nc2ccccc2c1=O)c1ccc(Cl)cc1`, in that order: greater than 100 µM, 7.5% and greater than 50 µg/mL.
`O=C(On1c(-c2cccc(F)c2)nc2ccccc2c1=O)c1cccc(F)c1`: in data set [2], the IC50 worked out at 6.5 µM. Besides, in data set [3], the inhibition worked out at 72%. Moreover, the inhibition at 10 µg/mL turned out to be 23.4% in data set [5] and 24.8% in [6]. In the data set on THP-1, the Activity result is “Non-toxic”. Also, the inhibition at 20 µg/mL in data set [7] is 49.5%; in [8], 48.2%. Further, the minimum inhibitory concentration (MIC) in data set [4] and in data set [1] was 2.5 µg/mL (≈ 6.61 µM) throughout.
As for `Cc1cccc(-c2nc3ccccc3c(=O)n2OC(=O)c2cccc(F)c2)c1`, the 50% inhibitory concentration (IC50) in data set [2] was greater than 100 µM. In [3], the inhibition came out at 9.5%. The MIC in data set [4] is greater than 50 µg/mL.
Regarding `Cc1cccc(-c2nc3ccccc3c(=O)n2OC(=O)c2ccc(Cl)cc2)c1`, in data set [2], the 50% inhibitory concentration (IC50) is greater than 100 µM. Further, the inhibition in data set [3] came out at 0%. In data set [4], the MIC was greater than 50 µg/mL.
In the case of `Cc1cccc(C(=O)On2c(-c3cccc(C)c3)nc3ccccc3c2=O)c1`, the half-inhibitory concentration (IC50) in data set [2] is greater than 100 µM. Further, in data set [3], the inhibition came to 10.5%. Further, the MIC in [4] is greater than 50 µg/mL.
With `COc1cccc(-c2nc3ccccc3c(=O)n2OC(=O)c2cccc(Cl)c2)c1`, in data set [2], the half-maximal inhibitory concentration (IC50) is greater than 100 µM. Besides, the inhibition in [3] stood at 23.5%. In addition, the minimum inhibitory concentration (MIC) in data set [4] was greater than 50 µg/mL.
Turning to `Cc1cccc(C(=O)On2c(-c3ccccc3)nc3ccccc3c2=O)c1`, the IC50 in data set [2] was greater than 100 µM. Besides, the inhibition in [3] came out at 4%. The MIC in [4] is greater than 50 µg/mL.
Consider `Cc1ccccc1C(=O)On1c(-c2ccccc2)nc2ccccc2c1=O`, for which the concentration for half-maximal inhibition (IC50) in data set [2] was greater than 100 µM. Moreover, the inhibition in [3] is 16.5%. Also, the minimum inhibitory concentration (MIC) in data set [4] is greater than 50 µg/mL.
Turning to `O=C(On1c(-c2cccc(F)c2)nc2ccccc2c1=O)c1cccc(C(F)(F)F)c1`, in data set [2], the IC50 is greater than 100 µM. Besides, the inhibition in [3] was determined as 30%. For the same compound, the MIC in data set [4] is greater than 50 µg/mL.
For `COc1cccc(-c2nc3ccccc3c(=O)n2OC(=O)c2cccc(C(F)(F)F)c2)c1`, in [2], the IC50 stood at 9.57 µM. In data set [3], the inhibition was 73.2%. Also, the minimal inhibitory concentration (MIC) in data set [4] and in [1] was 10 µg/mL (≈ 22.7 µM) throughout.
For the compound `NNC(=O)c1ccncc1` [ISONIAZID], the MIC in data set [1] was found to be 0.2 µg/mL (≈ 1.46 µM).
With `Cc1ccc(C(=O)On2c(-c3ccccc3)nc3ccccc3c2=O)cc1`, in data set [2], the IC50 was greater than 100 µM. Also, the inhibition in [3] was 18%. The MIC in data set [4] was greater than 50 µg/mL.
For the compound `COc1cccc(C(=O)On2c(-c3cccc(F)c3)nc3ccccc3c2=O)c1`, the IC50 in data set [2] was greater than 100 µM. Besides, the inhibition in data set [3] came to 28%. For the same compound, the MIC in [4] was 50 µg/mL (≈ 128 µM).
Turning to `O=C(On1c(-c2ccccc2)nc2ccccc2c1=O)c1cccc(Cl)c1`, the IC50 in data set [2] stood at 12.1 µM. In addition, the inhibition in [3] stood at 80.5%. Moreover, the MIC in data set [4] and in data set [1] was 5 µg/mL (≈ 13.3 µM) each time.
